The supplement of paper PMC10307832

Key:
Test in all cases: relative viability (nuclei count vs DMSO), 5 days (fraction); higher = more cells survive
PC-14 = system: PC-14
Outline: (§1)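 The day after seeding in 1536-well plates, lung cancer cell lines were treated by pin tool with a single drug, or with a fixed anchor-drug dose together with five library-drug doses (not always all listed) in √10 steps. After 5 days, a combined fix-and-stain solution (final 0.05% Triton X-100, 1% formaldehyde, 1 ug/ml Hoechst) was added. Nuclei counted on 4× images gave relative viability as treated counts over vehicle counts, reported as the median of duplicate plates.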

NCI-H1915 = system: NCI-H1915
Outline: as §1

NCI-H1355 = system: NCI-H1355
Outline: as §1

NCI-H1651 = system: NCI-H1651
Outline: as §1

EPLC-272H = system: EPLC-272H
Outline: as §1

NCI-H2347 = system: NCI-H2347
Outline: as §1

LU99A = system: LU99A
Outline: as §1

HARA = system: HARA
Outline: as §1

NCI-H838 = system: NCI-H838
Outline: as §1

NCI-H358 = system: NCI-H358
Outline: as §1

NCI-H2342 = system: NCI-H2342
Outline: as §1

ABC-1 = system: ABC-1
Outline: as §1

HCC-15 = system: HCC-15
Outline: as §1

LC-2-ad = system: LC-2-ad
Outline: as §1

NCI-H650 = system: NCI-H650
Outline: as §1

NCI-H1993 = system: NCI-H1993
Outline: as §1

NCI-H2085 = system: NCI-H2085
Outline: as §1

NCI-H2126 = system: NCI-H2126
Outline: as §1

HCC-78 = system: HCC-78
Outline: as §1

With CC1(C)CCC(c2ccc(Cl)cc2)=C(CN2CCN(c3ccc(C(=O)NS(=O)(=O)c4ccc(N[C@H](CCN5CCOCC5)CSc5ccccc5)c(S(=O)(=O)C(F)(F)F)c4)cc3)CC2)C1 [Navitoclax] + NC(=O)Nc1cc(-c2cccc(F)c2)sc1C(=O)N[C@H]1CCCNC1 [AZD7762] (partner 0.2 µM) the relative viability (PC-14; first compound 0.005 µM) was 0.326, the relative viability (PC-14; first compound 0.01581 µM) was 0.413 and the relative viability (PC-14; first compound 0.05 µM) was 0.255. It also gave a relative viability (PC-14; first compound 0.1581 µM) of 0.322, a relative viability (PC-14; first compound 0.5 µM) of 0.325 and a relative viability (NCI-H1915; first compound 0.005 µM) of 0.726. The relative viability (NCI-H1915; first compound 0.01581 µM) was 0.697, the relative viability (NCI-H1915; first compound 0.05 µM) was 0.657 and the relative viability (NCI-H1915; first compound 0.1581 µM) was 0.639. The relative viability (NCI-H1915; first compound 0.5 µM) was 0.597, the relative viability (NCI-H1355; first compound 0.005 µM) was 0.745 and the relative viability (NCI-H1355; first compound 0.01581 µM) was 0.728. The relative viability (NCI-H1355; first compound 0.05 µM) was 0.588, the relative viability (NCI-H1355; first compound 0.1581 µM) was 0.735 and the relative viability (NCI-H1355; first compound 0.5 µM) was 0.668. It also gave a relative viability (NCI-H1651; first compound 0.005 µM) of 0.485, a relative viability (NCI-H1651; first compound 0.01581 µM) of 0.488 and a relative viability (NCI-H1651; first compound 0.05 µM) of 0.335. It also gave a relative viability (NCI-H1651; first compound 0.1581 µM) of 0.474, a relative viability (NCI-H1651; first compound 0.5 µM) of 0.466 and a relative viability (EPLC-272H; first compound 0.005 µM) of 0.26. It also gave a relative viability (EPLC-272H; first compound 0.05 µM) of 0.3, a relative viability (EPLC-272H; first compound 0.1581 µM) of 0.143 and a relative viability (EPLC-272H; first compound 0.5 µM) of 0.257. For the same compound, the relative viability (NCI-H2347; first compound 0.005 µM) was 0.809, the relative viability (NCI-H2347; first compound 0.01581 µM) was 0.594 and the relative viability (NCI-H2347; first compound 0.05 µM) was 0.579. The relative viability (NCI-H2347; first compound 0.1581 µM) was 0.685, the relative viability (NCI-H2347; first compound 0.5 µM) was 0.579 and the relative viability (LU99A; first compound 0.005 µM) was 0.414. The relative viability (LU99A; first compound 0.01581 µM) was 0.466, the relative viability (LU99A; first compound 0.1581 µM) was 0.43 and the relative viability (LU99A; first compound 0.5 µM) was 0.439. For the same compound, the relative viability (HARA; first compound 0.005 µM) was 0.385, the relative viability (HARA; first compound 0.01581 µM) was 0.444 and the relative viability (HARA; first compound 0.05 µM) was 0.212. For the same compound, the relative viability (HARA; first compound 0.1581 µM) was 0.228, the relative viability (HARA; first compound 0.5 µM) was 0.32 and the relative viability (NCI-H838; first compound 0.005 µM) was 0.971. For the same compound, the relative viability (NCI-H838; first compound 0.01581 µM) was 0.869, the relative viability (NCI-H838; first compound 0.05 µM) was 0.937 and the relative viability (NCI-H838; first compound 0.1581 µM) was 0.97. The relative viability (NCI-H838; first compound 0.5 µM) was 0.957, the relative viability (NCI-H358; first compound 0.005 µM) was 0.566 and the relative viability (NCI-H358; first compound 0.01581 µM) was 0.712. It also gave a relative viability (NCI-H358; first compound 0.05 µM) of 0.545, a relative viability (NCI-H358; first compound 0.1581 µM) of 0.485 and a relative viability (NCI-H358; first compound 0.5 µM) of 0.592. For the same compound, the relative viability (NCI-H2342; first compound 0.005 µM) was 0.532, the relative viability (NCI-H2342; first compound 0.01581 µM) was 0.464 and the relative viability (NCI-H2342; first compound 0.05 µM) was 0.424. The relative viability (NCI-H2342; first compound 0.1581 µM) was 0.603, the relative viability (NCI-H2342; first compound 0.5 µM) was 0.571 and the relative viability (ABC-1; first compound 0.005 µM) was 0.816. For the same compound, the relative viability (ABC-1; first compound 0.01581 µM) was 1.22, the relative viability (ABC-1; first compound 0.1581 µM) was 0.687 and the relative viability (ABC-1; first compound 0.5 µM) was 0.72. It also gave a relative viability (HCC-15; first compound 0.005 µM) of 0.868, a relative viability (HCC-15; first compound 0.01581 µM) of 1.2 and a relative viability (HCC-15; first compound 0.05 µM) of 0.838. For the same compound, the relative viability (HCC-15; first compound 0.1581 µM) was 1.03, the relative viability (HCC-15; first compound 0.5 µM) was 1.05 and the relative viability (LC-2-ad; first compound 0.005 µM) was 0.835. For the same compound, the relative viability (LC-2-ad; first compound 0.01581 µM) was 0.957, the relative viability (LC-2-ad; first compound 0.05 µM) was 0.796 and the relative viability (LC-2-ad; first compound 0.1581 µM) was 0.815. For the same compound, the relative viability (LC-2-ad; first compound 0.5 µM) was 0.822, the relative viability (NCI-H650; first compound 0.005 µM) was 0.946 and the relative viability (NCI-H650; first compound 0.01581 µM) was 1.12. It also gave a relative viability (NCI-H650; first compound 0.05 µM) of 1.13, a relative viability (NCI-H650; first compound 0.1581 µM) of 0.801 and a relative viability (NCI-H650; first compound 0.5 µM) of 0.937. It also gave a relative viability (NCI-H1993; first compound 0.005 µM) of 0.738, a relative viability (NCI-H1993; first compound 0.01581 µM) of 1.05 and a relative viability (NCI-H1993; first compound 0.05 µM) of 0.552. It also gave a relative viability (NCI-H1993; first compound 0.1581 µM) of 0.721, a relative viability (NCI-H1993; first compound 0.5 µM) of 0.641 and a relative viability (NCI-H2085; first compound 0.005 µM) of 0.941. For the same compound, the relative viability (NCI-H2085; first compound 0.01581 µM) was 1.01, the relative viability (NCI-H2085; first compound 0.05 µM) was 0.885 and the relative viability (NCI-H2085; first compound 0.1581 µM) was 1.07. It also gave a relative viability (NCI-H2085; first compound 0.5 µM) of 0.942, a relative viability (NCI-H2126; first compound 0.005 µM) of 1.06 and a relative viability (NCI-H2126; first compound 0.01581 µM) of 0.931. It also gave a relative viability (NCI-H2126; first compound 0.05 µM) of 1.05, a relative viability (NCI-H2126; first compound 0.1581 µM) of 0.915 and a relative viability (NCI-H2126; first compound 0.5 µM) of 0.947. The relative viability (HCC-78; first compound 0.005 µM) was 0.985, the relative viability (HCC-78; first compound 0.01581 µM) was 0.612 and the relative viability (HCC-78; first compound 0.05 µM) was 0.508. For the same compound, the relative viability (HCC-78; first compound 0.1581 µM) was 0.607 and the relative viability (HCC-78; first compound 0.5 µM) was 0.667.
